Earlier results on two molecules are cited in patent US20020025310A1, “Compositions and methods for promoting healthy joints” (priority 2000, published 2002).

One data set addresses PARS (Homo sapiens, UniProt P09874). As to conditions: 100 mg/day supplementation, smokers with varying levels of cytogenic damage.
The conditions of data set [1]: 200 to 400 mg/day.
The subject of data set [2] is complex I, IV, and V in hepatic mitochondria. As to conditions: senescent mice, compared to controls without NAC supplementation.
The conditions of data set [3]: COPD patients, 600 mg per day oral, compared to patients without NAC.
For data set [4] the following is noted: 800 mg orally, heavy aerobic exercise.
The subject of a further data set is isolated alveolar cells. To be noted: animal studies.

Chain of PARS (P09874 whole entry): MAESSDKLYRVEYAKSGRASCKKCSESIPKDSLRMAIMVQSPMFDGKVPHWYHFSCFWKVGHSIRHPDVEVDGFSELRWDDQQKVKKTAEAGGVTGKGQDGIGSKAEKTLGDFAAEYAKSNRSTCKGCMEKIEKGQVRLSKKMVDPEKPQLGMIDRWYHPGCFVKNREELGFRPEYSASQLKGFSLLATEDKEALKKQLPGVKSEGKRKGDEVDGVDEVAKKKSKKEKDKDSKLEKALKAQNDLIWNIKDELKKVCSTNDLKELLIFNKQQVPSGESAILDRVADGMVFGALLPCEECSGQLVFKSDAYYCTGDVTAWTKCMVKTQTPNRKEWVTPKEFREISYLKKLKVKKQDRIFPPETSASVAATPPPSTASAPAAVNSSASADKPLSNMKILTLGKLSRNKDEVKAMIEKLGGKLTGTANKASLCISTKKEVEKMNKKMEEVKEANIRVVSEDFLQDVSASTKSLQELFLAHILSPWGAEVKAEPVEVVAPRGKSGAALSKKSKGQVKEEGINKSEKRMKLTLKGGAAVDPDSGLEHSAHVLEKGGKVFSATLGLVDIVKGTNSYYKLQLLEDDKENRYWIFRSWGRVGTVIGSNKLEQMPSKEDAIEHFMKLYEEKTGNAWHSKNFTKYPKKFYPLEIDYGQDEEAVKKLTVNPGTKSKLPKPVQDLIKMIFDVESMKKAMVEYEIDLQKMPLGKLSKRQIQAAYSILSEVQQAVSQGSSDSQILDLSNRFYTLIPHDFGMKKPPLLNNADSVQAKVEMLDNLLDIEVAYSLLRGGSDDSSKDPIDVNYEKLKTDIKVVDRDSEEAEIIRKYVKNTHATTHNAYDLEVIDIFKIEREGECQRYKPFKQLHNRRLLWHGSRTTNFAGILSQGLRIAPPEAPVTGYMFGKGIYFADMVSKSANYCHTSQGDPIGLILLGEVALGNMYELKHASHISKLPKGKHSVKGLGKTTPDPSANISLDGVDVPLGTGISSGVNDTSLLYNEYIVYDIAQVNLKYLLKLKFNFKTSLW

In the case of `O=C(O)c1cccnc1` [nicotinic acid], the PARS activity entry at PARS is “did not result in a significant reduction”.

With `CC(=O)N[C@@H](CS)C(=O)O` [NAC, N-acetylcysteine], in data set [1], the “glutathione disulfide-to-reduced glutathione ratio” value is reported as “reduction” and the intercellular glutathione levels entry is “significant increase”. Moreover, in data set [2], the “specific activities of complex I, IV, and V in hepatic mitochondria” value is reported as “significantly higher”. In data set [3], the bacterial-positive cultures result is “fewer bacterial-positive cultures”, the clinical course result is “improved clinical course” and the use of bronchodilators result is reported as “reduced use of bronchodilators”. In data set [4], the “exercise-associated damage in leukocyte DNA” value is given as “less exercise-associated damage in leukocyte DNA”, the glutathione-to-glutathione disulfide ratio result was “increased” and the “plasma lipid peroxide level” value is “lowered”. Moreover, the “individuals reporting side effects” value (400 to 6400 mg/m^2/day in divided doses) is recorded as 13 of 26. For the same molecule, where the note is “400 to 6400 mg/m^2/day in divided doses, doubled each month”, the significant side effects entry is “bad taste and GI disturbances”. Besides, the “dose exceeded before any difficulty was reported” value (individuals reporting side effects) is listed as above 800 mg/m^2. In the data set with isolated alveolar cells, the “intracellular ATP depletion after oxidant exposure” value is listed as “helps protect”.
